{"source": "patent US20260294915A1", "about": "“COMBINATION THERAPY COMPRISING A MAT2A INHIBITOR AND A TOPOISOMERASE INHIBITOR, A SPLICING INHIBITOR SULFONAMIDE, OR A KIF18 INHIBITOR” (IDEAYA BIOSCIENCES, INC., priority 2023, published 2026)", "assay_in_all_cases": "10-day proliferation (CTG), equimolar Compound A + Compound B (Example 1)", "format_in_all_cases": "cell-based", "key": {"SW900": {"system": "SW900", "settings": "Homo sapiens, SW900, 240 h, 10 days, single agent or 1:1 combo; for IC30: read-out: gIC30; for IC40: read-out: gIC40; for IC50: read-out: gIC50; for IC60: read-out: gIC60; for IC70: read-out: gIC70; for IC80: read-out: gIC80; for IC90: read-out: gIC90; for IC100: read-out: gIC100", "method": "(§1) A 10-day proliferation assay was performed in a panel of 5 MTAP-deficient and 2 wild type non-small cell lung and bladder cancer cell lines. Optimal cell seeding for all cell lines was determined by assessing the growth over a range of seeding densities in a 384-well format to identify conditions that permitted proliferation for 10 days. Cells were then plated at the optimal seeding density and treated with 20-point, two-fold dilution series of Compound A, sovilnesib (“Compound B”), or an equimolar combination of Compound A and Compound B. Concentrations tested for Compound A and Compound B alone or in combination ranged from 0.038 nM to 20,000 nM. A plate of cells was harvested at the time of compound addition to quantify the number of cells at the start of the combination (T0). For cell quantification, the harvested cells were lysed with Promega CellTiter-Glo (CTG) reagent according to the manufacturer's protocol and the chemiluminescent signal was detected on a Synergy Neo plate reader. CTG estimates cell number through detection of cellular ATP levels. Cells were incubated with the drug combinations at 37° C. with 5% CO2 for 10 days. Cells were then lysed with CTG and the chemiluminescent signal was measured.\n(§2) CTG values obtained after the 10-day treatment were background subtracted and expressed as a percent of the T0 value. Data were plotted against compound concentration and fit with a four-parameter equation to generate dose response curves for each single agent and the equimolar combination. Growth ICx (gICx) values ranging from gIC30 to gIC100 were interpolated from the fitted curves. Synergistic growth inhibition was assessed by determination of Combination Index (CI) values at these various points across the titration using the mutually non-exclusive equation [Chou, 1983; Chou, 1981] shown below where A equals the gIC value of Compound A, B equals the gICx value of Compound B, and A+B or B+A equals the gICx value of the equimolar combination. A Combination Index value less than 1.0 was considered synergistic.\n(§3) Synergy was measured for equimolar combinations of Compound A and Compound B utilizing the mutually non-exclusive Combination Index equation across gICx values ranging from gIC30-gIC100. Combination Index values are shown for: NCI-H838 (3A), SW900 (3B), RT112/84 (3C), UMUC5 (3D), and UMUC11 (3E)."}, "UMUC11": {"system": "UMUC11", "settings": "240 h, 10 days, single agent or 1:1 combo; for IC30: read-out: gIC30; for IC40: read-out: gIC40; for IC50: read-out: gIC50; for IC60: read-out: gIC60; for IC70: read-out: gIC70; for IC80: read-out: gIC80; for IC90: read-out: gIC90; for IC100: read-out: gIC100", "method": "as §1, §2, §3"}, "RT112/84": {"system": "RT112/84", "settings": "Homo sapiens, RT112/84, 240 h, 10 days, single agent or 1:1 combo; for IC30: read-out: gIC30; for IC40: read-out: gIC40; for IC50: read-out: gIC50; for IC60: read-out: gIC60; for IC70: read-out: gIC70; for IC80: read-out: gIC80; for IC90: read-out: gIC90; for IC100: read-out: gIC100", "method": "as §1, §2, §3"}, "UMUC5": {"system": "UMUC5", "settings": "240 h, 10 days, single agent or 1:1 combo; for IC30: read-out: gIC30; for IC40: read-out: gIC40; for IC50: read-out: gIC50; for IC60: read-out: gIC60; for IC70: read-out: gIC70; for IC80: read-out: gIC80; for IC90: read-out: gIC90; for IC100: read-out: gIC100", "method": "as §1, §2, §3"}, "NCI-H838": {"system": "NCI-H838", "settings": "Homo sapiens, NCI-H838, 240 h, 10 days, single agent or 1:1 combo; for IC30: read-out: gIC30; for IC40: read-out: gIC40; for IC50: read-out: gIC50; for IC60: read-out: gIC60; for IC70: read-out: gIC70; for IC80: read-out: gIC80; for IC90: read-out: gIC90; for IC100: read-out: gIC100", "method": "as §1, §2, §3"}}, "data": [{"compound": "Cc1cc(NC(=O)c2ccc(NS(=O)(=O)CCO)cc2N2CCC3(CC2)CC3)nc(N2CCC(F)(F)CC2)n1", "note": "[Compound B, N-(2-(4,4-difluoropiperidin-1-yl)-6-methylpyrimidin-4-yl)-4-((2-hydroxyethyl)sulfonamido)-2-(6-azaspiro[2.5]octan-6-yl)benzamide]", "values": [{"measurement": "IC30", "setting": "SW900", "result": 5.48, "unit": "µM"}, {"measurement": "IC40", "setting": "SW900", "result": 8.55, "unit": "µM"}, {"measurement": "IC50", "setting": "SW900", "result": 12.3, "unit": "µM"}, {"measurement": "IC60", "setting": "SW900", "result": 16.6, "unit": "µM"}, {"measurement": "IC70", "setting": "SW900", "result": 19.9, "unit": "µM"}, {"measurement": "IC80", "setting": "SW900", "result": 20, "unit": "µM"}, {"measurement": "IC90", "setting": "SW900", "result": 20, "unit": "µM"}, {"measurement": "IC100", "setting": "SW900", "result": 20, "unit": "µM"}, {"measurement": "IC30", "setting": "UMUC11", "result": 2.2, "unit": "µM"}, {"measurement": "IC40", "setting": "UMUC11", "result": 3.48, "unit": "µM"}, {"measurement": "IC50", "setting": "UMUC11", "result": 5.17, "unit": "µM"}, {"measurement": "IC60", "setting": "UMUC11", "result": 7.3, "unit": "µM"}, {"measurement": "IC70", "setting": "UMUC11", "result": 9.95, "unit": "µM"}, {"measurement": "IC80", "setting": "UMUC11", "result": 13.2, "unit": "µM"}, {"measurement": "IC90", "setting": "UMUC11", "result": 17.1, "unit": "µM"}, {"measurement": "IC100", "setting": "UMUC11", "result": 20, "unit": "µM"}, {"measurement": "IC30", "setting": "RT112/84", "result": 0.15, "unit": "µM"}, {"measurement": "IC40", "setting": "RT112/84", "result": 0.17, "unit": "µM"}, {"measurement": "IC50", "setting": "RT112/84", "result": 0.192, "unit": "µM"}, {"measurement": "IC60", "setting": "RT112/84", "result": 0.222, "unit": "µM"}, {"measurement": "IC70", "setting": "RT112/84", "result": 0.273, "unit": "µM"}, {"measurement": "IC80", "setting": "RT112/84", "result": 10.3, "unit": "µM"}, {"measurement": "IC90", "setting": "RT112/84", "result": 20, "unit": "µM"}, {"measurement": "IC100", "setting": "RT112/84", "result": 20, "unit": "µM"}, {"measurement": "IC30", "setting": "UMUC5", "result": 0.17, "unit": "µM"}, {"measurement": "IC40", "setting": "UMUC5", "result": 0.194, "unit": "µM"}, {"measurement": "IC50", "setting": "UMUC5", "result": 0.221, "unit": "µM"}, {"measurement": "IC60", "setting": "UMUC5", "result": 0.253, "unit": "µM"}, {"measurement": "IC70", "setting": "UMUC5", "result": 0.296, "unit": "µM"}, {"measurement": "IC80", "setting": "UMUC5", "result": 0.37, "unit": "µM"}, {"measurement": "IC90", "setting": "UMUC5", "result": 0.662, "unit": "µM"}, {"measurement": "IC100", "setting": "UMUC5", "result": 20, "unit": "µM"}, {"measurement": "IC30", "setting": "NCI-H838", "result": 0.735, "unit": "µM"}, {"measurement": "IC40", "setting": "NCI-H838", "result": 1.48, "unit": "µM"}, {"measurement": "IC50", "setting": "NCI-H838", "result": 12.5, "unit": "µM"}, {"measurement": "IC60", "setting": "NCI-H838", "result": 14.3, "unit": "µM"}, {"measurement": "IC70", "setting": "NCI-H838", "result": 17, "unit": "µM"}, {"measurement": "IC80", "setting": "NCI-H838", "result": 20, "unit": "µM"}, {"measurement": "IC90", "setting": "NCI-H838", "result": 20, "unit": "µM"}, {"measurement": "IC100", "setting": "NCI-H838", "result": 20, "unit": "µM"}]}, {"compound": "Nc1nc(=O)n(-c2ccccc2Cl)c2nc(C(F)(F)F)ccc12", "note": "[Compound A]", "values": [{"measurement": "IC30", "setting": "SW900", "result": 20, "unit": "µM"}, {"measurement": "IC40", "setting": "SW900", "result": 20, "unit": "µM"}, {"measurement": "IC50", "setting": "SW900", "result": 20, "unit": "µM"}, {"measurement": "IC60", "setting": "SW900", "result": 20, "unit": "µM"}, {"measurement": "IC70", "setting": "SW900", "result": 20, "unit": "µM"}, {"measurement": "IC80", "setting": "SW900", "result": 20, "unit": "µM"}, {"measurement": "IC90", "setting": "SW900", "result": 20, "unit": "µM"}, {"measurement": "IC100", "setting": "SW900", "result": 20, "unit": "µM"}, {"measurement": "IC30", "setting": "UMUC11", "result": 20, "unit": "µM"}, {"measurement": "IC40", "setting": "UMUC11", "result": 20, "unit": "µM"}, {"measurement": "IC50", "setting": "UMUC11", "result": 20, "unit": "µM"}, {"measurement": "IC60", "setting": "UMUC11", "result": 20, "unit": "µM"}, {"measurement": "IC70", "setting": "UMUC11", "result": 20, "unit": "µM"}, {"measurement": "IC80", "setting": "UMUC11", "result": 20, "unit": "µM"}, {"measurement": "IC90", "setting": "UMUC11", "result": 20, "unit": "µM"}, {"measurement": "IC100", "setting": "UMUC11", "result": 20, "unit": "µM"}, {"measurement": "IC30", "setting": "RT112/84", "result": 0.277, "unit": "µM"}, {"measurement": "IC40", "setting": "RT112/84", "result": 0.854, "unit": "µM"}, {"measurement": "IC50", "setting": "RT112/84", "result": 3, "unit": "µM"}, {"measurement": "IC60", "setting": "RT112/84", "result": 16, "unit": "µM"}, {"measurement": "IC70", "setting": "RT112/84", "result": 20, "unit": "µM"}, {"measurement": "IC80", "setting": "RT112/84", "result": 20, "unit": "µM"}, {"measurement": "IC90", "setting": "RT112/84", "result": 20, "unit": "µM"}, {"measurement": "IC100", "setting": "RT112/84", "result": 20, "unit": "µM"}, {"measurement": "IC30", "setting": "UMUC5", "result": 0.357, "unit": "µM"}, {"measurement": "IC40", "setting": "UMUC5", "result": 1.35, "unit": "µM"}, {"measurement": "IC50", "setting": "UMUC5", "result": 5.16, "unit": "µM"}, {"measurement": "IC60", "setting": "UMUC5", "result": 19.4, "unit": "µM"}, {"measurement": "IC70", "setting": "UMUC5", "result": 20, "unit": "µM"}, {"measurement": "IC80", "setting": "UMUC5", "result": 20, "unit": "µM"}, {"measurement": "IC90", "setting": "UMUC5", "result": 20, "unit": "µM"}, {"measurement": "IC100", "setting": "UMUC5", "result": 20, "unit": "µM"}, {"measurement": "IC30", "setting": "NCI-H838", "result": 0.052, "unit": "µM"}, {"measurement": "IC40", "setting": "NCI-H838", "result": 0.09, "unit": "µM"}, {"measurement": "IC50", "setting": "NCI-H838", "result": 0.208, "unit": "µM"}, {"measurement": "IC60", "setting": "NCI-H838", "result": 20, "unit": "µM"}, {"measurement": "IC70", "setting": "NCI-H838", "result": 20, "unit": "µM"}, {"measurement": "IC80", "setting": "NCI-H838", "result": 20, "unit": "µM"}, {"measurement": "IC90", "setting": "NCI-H838", "result": 20, "unit": "µM"}, {"measurement": "IC100", "setting": "NCI-H838", "result": 20, "unit": "µM"}]}]}
